Assay results from patent publication US8309558B2, “Compounds for the treatment of hepatitis C” (Bristol-Myers Squibb Company, priority 2008, dated 2012).

Tests used:
HCV replicon cells = experiment: HCV replicon FRET / luciferase assay (96-well plates); assay type: cell-based; conditions: Hepatitis C virus, Table 1a; HCV replicon; read-out: EC50
Summary of the method: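 Readout was NS3 protease cleavage of an EDANS/DABCYL FRET peptide (20 μM final) in lysed HCV replicon cells, or Renilla luciferase in reporter replicons. Background came from wells with the highest level of control protease inhibitor. EC50 marked the concentration giving 50% signal reduction.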

[1] = target: T1, HCV NS5B RdRp genotype 1b (Hepatitis C virus genotype 1b, UniProt Q9WMX2); experiment: Standard HCV NS5B RdRp enzyme assay; assay type: biochemical; conditions: Table 1a; HCV NS5B RdRp genotype 1b; read-out: IC50
T1 construct: The protein was expressed with an 18 amino acid C-terminal truncation to enhance the solubility; made in house; host or cells: E. coli BL21(DE3), pET21a vector
Summary of the method: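 Radiometric SPA measuring 3H-UMP incorporation on polyA/biotin-oligo-dT12 (6 nM/180 nM), 0.29 μM total UTP. Enzyme: NS5B 1b lacking last 18 residues, 28 nM final, 30° C for 60 min in 20 mM Hepes pH 7.5, 2.5 mM MgCl2, 2% DMSO. IC50 from seven-point curves.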

T1 sequence (Q9WMX2 2420-2992): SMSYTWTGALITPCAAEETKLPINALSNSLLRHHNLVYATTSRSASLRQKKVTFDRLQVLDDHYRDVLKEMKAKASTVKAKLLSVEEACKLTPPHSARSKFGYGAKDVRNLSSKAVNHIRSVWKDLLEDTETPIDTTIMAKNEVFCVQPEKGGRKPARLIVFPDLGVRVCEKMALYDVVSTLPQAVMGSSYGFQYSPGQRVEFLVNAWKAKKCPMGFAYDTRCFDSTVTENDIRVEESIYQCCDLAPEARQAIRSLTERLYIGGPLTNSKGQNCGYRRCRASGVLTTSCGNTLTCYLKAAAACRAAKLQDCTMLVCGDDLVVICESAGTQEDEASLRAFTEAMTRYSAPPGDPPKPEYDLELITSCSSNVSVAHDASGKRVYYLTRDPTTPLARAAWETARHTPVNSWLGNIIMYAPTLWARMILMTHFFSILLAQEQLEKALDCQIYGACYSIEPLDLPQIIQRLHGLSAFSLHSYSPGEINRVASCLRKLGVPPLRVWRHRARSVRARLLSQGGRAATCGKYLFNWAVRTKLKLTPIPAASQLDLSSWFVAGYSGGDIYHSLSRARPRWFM

SMILES | EC50 (HCV replicon cells) | IC50 [1]
CNC(=O)c1c(-c2ccc(F)cc2)oc2ccc(-c3cccc(C(=O)NCC(C)(C)C)c3)cc12 | < 250 nM | < 250 nM
CNC(=O)c1c(-c2ccc(F)cc2)oc2ccc(-c3cccc(C(=O)NCC4CC4)c3)cc12 | < 250 nM | < 250 nM
CCC(CC)NC(=O)c1cccc(-c2ccc3oc(-c4ccc(F)cc4)c(C(=O)NC)c3c2)c1 | < 250 nM | < 250 nM
CCC(C)NC(=O)c1cccc(-c2ccc3oc(-c4ccc(F)cc4)c(C(=O)NC)c3c2)c1 (stereo not drawn) | < 250 nM | < 250 nM
CCCCCNC(=O)c1cccc(-c2ccc3oc(-c4ccc(F)cc4)c(C(=O)NC)c3c2)c1 | < 250 nM | < 250 nM
CNC(=O)c1c(-c2ccc(F)cc2)oc2ccc(-c3cccc(C(=O)NCc4ccc(C)cc4)c3)cc12 | < 250 nM | < 250 nM
CNC(=O)c1c(-c2ccc(F)cc2)oc2ccc(-c3cccc(C(=O)NCCC(C)C)c3)cc12 | < 250 nM | 250 to 1000 nM
CNC(=O)c1c(-c2ccc(F)cc2)oc2ccc(-c3cccc(C(=O)N(C)CCOC)c3)cc12 | 1000 to 10000 nM | 1000 to 10000 nM
C#CCNC(=O)c1cccc(-c2ccc3oc(-c4ccc(F)cc4)c(C(=O)NC)c3c2)c1 | 1000 to 10000 nM | 250 to 1000 nM
CNC(=O)c1c(-c2ccc(F)cc2)oc2ccc(-c3cccc(C(=O)NCc4ccccc4F)c3)cc12 | 1000 to 10000 nM | 250 to 1000 nM
CNC(=O)c1c(-c2ccc(F)cc2)oc2ccc(-c3cccc(C(=O)N4CCCC4C)c3)cc12 (stereo not drawn) | 1000 to 10000 nM | 250 to 1000 nM
CNC(=O)c1c(-c2ccc(F)cc2)oc2ccc(-c3cccc(C(=O)N4CC[C@@H](O)C4)c3)cc12 | 1000 to 10000 nM | 1000 to 10000 nM
CNC(=O)c1c(-c2ccc(F)cc2)oc2ccc(-c3cccc(C(=O)N(CCOC)CCOC)c3)cc12 | 1000 to 10000 nM | 1000 to 10000 nM
CCN1CCN(C(=O)c2cccc(-c3ccc4oc(-c5ccc(F)cc5)c(C(=O)NC)c4c3)c2)CC1 | 1000 to 10000 nM | 1000 to 10000 nM
CNC(=O)c1c(-c2ccc(F)cc2)oc2ccc(-c3cccc(C(=O)NCCNC(C)=O)c3)cc12 | 1000 to 10000 nM | 1000 to 10000 nM
CNC(=O)c1c(-c2ccc(F)cc2)oc2ccc(-c3cccc(C(=O)N(C)CCN(C)C)c3)cc12 | 1000 to 10000 nM | > 10000 nM
CNC(=O)c1c(-c2ccc(F)cc2)oc2ccc(-c3cccc(C(=O)Nc4cccc(OC)c4)c3)cc12 | 1000 to 10000 nM | 1000 to 10000 nM
CCOC(=O)C1CCCN(C(=O)c2cccc(-c3ccc4oc(-c5ccc(F)cc5)c(C(=O)NC)c4c3)c2)C1 (stereo not drawn) | 1000 to 10000 nM | 1000 to 10000 nM
CNC(=O)c1c(-c2ccc(F)cc2)oc2ccc(-c3cccc(C(=O)N4CC(C)OC(C)C4)c3)cc12 (stereo not drawn) | 1000 to 10000 nM | 1000 to 10000 nM
CNC(=O)c1c(-c2ccc(F)cc2)oc2ccc(-c3cccc(C(=O)N4CCC[C@H]4CO)c3)cc12 | 1000 to 10000 nM | 250 to 1000 nM
CNC(=O)c1c(-c2ccc(F)cc2)oc2ccc(-c3cccc(C(=O)N(C)CCO)c3)cc12 | 1000 to 10000 nM | 1000 to 10000 nM
CNC(=O)c1c(-c2ccc(F)cc2)oc2ccc(-c3cccc(C(=O)N4CCCC(C)C4)c3)cc12 (stereo not drawn) | 1000 to 10000 nM | 1000 to 10000 nM

SMILES | EC50 (HCV replicon cells) | IC50 [1]
CNC(=O)c1c(-c2ccc(F)cc2)oc2ccc(-c3cccc(C(=O)Nc4ccccc4Cl)c3)cc12 | 1000 to 10000 nM | 1000 to 10000 nM
CNC(=O)c1c(-c2ccc(F)cc2)oc2ccc(-c3cccc(C(=O)Nc4cccc(O)c4)c3)cc12 | 1000 to 10000 nM | 1000 to 10000 nM
CNC(=O)c1c(-c2ccc(F)cc2)oc2ccc(-c3cccc(C(=O)N4CCCC(CO)C4)c3)cc12 (stereo not drawn) | 1000 to 10000 nM | 1000 to 10000 nM
CNC(=O)c1c(-c2ccc(F)cc2)oc2ccc(-c3ccc(C(=O)N4CC[C@H](NC(C)=O)C4)cc3)cc12 | 1000 to 10000 nM | 1000 to 10000 nM
CCN(Cc1ccncc1)C(=O)c1ccc(-c2ccc3oc(-c4ccc(F)cc4)c(C(=O)NC)c3c2)cc1 | 1000 to 10000 nM | > 10000 nM
CNC(=O)c1c(-c2ccc(F)cc2)oc2ccc(-c3ccc(C(=O)NCC(=O)OC)cc3)cc12 | 1000 to 10000 nM | > 10000 nM
CNC(=O)c1c(-c2ccc(F)cc2)oc2ccc(-c3ccc(C(=O)N(C)C4CCN(C)C4)cc3)cc12 (stereo not drawn) | 1000 to 10000 nM | > 10000 nM
CNC(=O)c1c(-c2ccc(F)cc2)oc2ccc(-c3ccc(C(=O)NCCc4ccc(F)cc4)cc3)cc12 | 1000 to 10000 nM | > 10000 nM
CNC(=O)c1c(-c2ccc(F)cc2)oc2ccc(-c3ccc(C(=O)NCCO)cc3)cc12 | 1000 to 10000 nM | > 10000 nM
CNC(=O)c1c(-c2ccc(F)cc2)oc2ccc(-c3cccc(C(=O)Nc4ccon4)c3)cc12 | 1000 to 10000 nM | 250 to 1000 nM
CNC(=O)c1c(-c2ccc(F)cc2)oc2ccc(-c3cccc(C(=O)Nc4cc(C)no4)c3)cc12 | 1000 to 10000 nM | 1000 to 10000 nM
CNC(=O)c1c(-c2ccc(F)cc2)oc2ccc(-c3ccc(Cl)c(C(=O)NCC(C)C)c3)cc12 | 1000 to 10000 nM | 1000 to 10000 nM
CNC(=O)c1c(-c2ccc(F)cc2)oc2ccc(-c3cccc(C(=O)N[C@@H](C)C(=O)OC)c3)cc12 | 1000 to 10000 nM | < 250 nM
CNC(=O)c1c(-c2ccc(F)cc2)oc2ccc(-c3cccc(C(=O)N[C@H](CO)Cc4c[nH]cn4)c3)cc12 | 1000 to 10000 nM | 1000 to 10000 nM
CCOC(=O)[C@H](C)NC(=O)c1cccc(-c2ccc3oc(-c4ccc(F)cc4)c(C(=O)NC)c3c2)c1 | 1000 to 10000 nM | < 250 nM
CNC(=O)c1c(-c2ccc(F)cc2)oc2ccc(-c3cccc(C(=O)N[C@@H](CO)c4ccccc4)c3)cc12 | 1000 to 10000 nM | 250 to 1000 nM
CNC(=O)c1c(-c2ccc(F)cc2)oc2ccc(-c3cccc(C(=O)NC(CO)C(=O)OC)c3)cc12 (stereo not drawn) | 1000 to 10000 nM | 250 to 1000 nM
CNC(=O)c1c(-c2ccc(F)cc2)oc2ccc(-c3cccc(C(=O)Nc4ccc(O)nc4)c3)cc12 | 1000 to 10000 nM | 1000 to 10000 nM
CNC(=O)c1c(-c2ccc(F)cc2)oc2ccc(-c3cccc(C(=O)N[C@H](C(N)=O)C(C)C)c3)cc12 | 1000 to 10000 nM | 250 to 1000 nM
CNC(=O)c1c(-c2ccc(F)cc2)oc2ccc(-c3cccc(C(=O)N[C@H](CO)C(=O)OC)c3)cc12 | 1000 to 10000 nM | 250 to 1000 nM
CCOC(=O)C(NC(=O)c1cccc(-c2ccc3oc(-c4ccc(F)cc4)c(C(=O)NC)c3c2)c1)C(C)C (stereo not drawn) | 1000 to 10000 nM | 250 to 1000 nM
CNC(=O)c1c(-c2ccc(F)cc2)oc2ccc(-c3cccc(C(=O)N[C@@H](C)C(=O)NC)c3)cc12 | 1000 to 10000 nM | 250 to 1000 nM

SMILES | EC50 (HCV replicon cells) | IC50 [1]
CNC(=O)c1c(-c2ccc(F)cc2)oc2ccc(-c3cccc(C(=O)N[C@@H](CO)CC(C)C)c3)cc12 | 1000 to 10000 nM | 1000 to 10000 nM
CNC(=O)c1c(-c2ccc(F)cc2)oc2ccc(-c3cccc(C(=O)N[C@@H](CO)C(C)(C)C)c3)cc12 | 1000 to 10000 nM | 1000 to 10000 nM
CCCC(CCC)NC(=O)c1cccc(-c2ccc3oc(-c4ccc(F)cc4)c(C(=O)NC)c3c2)c1 | 1000 to 10000 nM | > 400 nM
CNC(=O)c1c(-c2ccc(F)cc2)oc2ccc(-c3cccc(C(=O)NS(=O)(=O)C(C)(C)C)c3)cc12 | 1000 to 10000 nM | < 250 nM
CNC(=O)c1c(-c2ccc(F)cc2)oc2ccc(-c3cccc(C(=O)NS(=O)(=O)c4ccccc4)c3)cc12 | 1000 to 10000 nM | < 250 nM
CNC(=O)c1c(-c2ccc(F)cc2)oc2ccc(-c3cccc(C(=O)N(C)S(=O)(=O)c4ccccc4)c3)cc12 | 1000 to 10000 nM | > 1390 nM
CNC(=O)c1c(-c2ccc(F)cc2)oc2ccc(-c3cccc(C(=O)NC(C)(C)c4ccccc4)c3)c(NC(C)=O)c12 | 1000 to 10000 nM | 1000 to 10000 nM
CNC(=O)c1c(-c2ccc(F)cc2)oc2ccc(-c3cccc(S(C)(=O)=O)c3)cc12 | 1000 to 10000 nM | > 10000 nM
CNC(=O)c1c(-c2ccc(F)cc2)oc2ccc(-c3cc(C(F)(F)F)ccc3OC)cc12 | > 3700 nM | > 10000 nM
CNC(=O)c1c(-c2ccc(F)cc2)oc2ccc(-c3ccc(C(=O)NC4CC4)cc3)cc12 | > 1230 nM | > 10000 nM
CNC(=O)c1c(-c2ccc(F)cc2)oc2ccc(-c3cc(C)c(Br)cc3C)cc12 | > 3700 nM | > 10000 nM
CNC(=O)c1c(-c2ccc(F)cc2)oc2ccc(-c3ccc(C(F)(F)F)c(Cl)c3)cc12 | > 1230 nM | > 10000 nM
CNC(=O)c1c(-c2ccc(F)cc2)oc2ccc(-c3ccc(OC)nc3OC)cc12 | > 1230 nM | > 10000 nM
CNC(=O)c1c(-c2ccc(F)cc2)oc2ccc(-c3ccc(CNS(C)(=O)=O)cc3)cc12 | > 1230 nM | > 10000 nM
CNC(=O)c1c(-c2ccc(F)cc2)oc2ccc(-c3ccc(OC)nc3)cc12 | > 1230 nM | > 10000 nM
CNC(=O)c1c(-c2ccc(F)cc2)oc2ccc(-c3cc(OC)ncc3Cl)cc12 | > 1230 nM | > 10000 nM
CNC(=O)c1c(-c2ccc(F)cc2)oc2ccc(-c3cccc(C(N)=O)c3)cc12 | > 3700 nM | 1000 to 10000 nM
CNC(=O)c1c(-c2ccc(F)cc2)oc2ccc(-c3cccc(C(=O)OC)c3)cc12 | > 3700 nM | > 10000 nM
CNC(=O)c1ccc(-c2ccc3oc(-c4ccc(F)cc4)c(C(=O)NC)c3c2)cc1 | > 3700 nM | > 10000 nM
CNC(=O)c1c(-c2ccc(F)cc2)oc2ccc(-c3cccc(S(=O)(=O)NC)c3)cc12 | > 3700 nM | > 10000 nM
CNC(=O)c1c(-c2ccc(F)cc2)oc2ccc(-c3cccc(C(=O)O)c3)cc12 | > 10000 nM | 1000 to 10000 nM
CNC(=O)c1c(-c2ccc(F)cc2)oc2ccc(-c3ccc(CCC(=O)O)cc3)cc12 | > 10000 nM | 1000 to 10000 nM
